{"source": "patent US9115201B2", "about": "(priority 2008, dated 2015)", "design_in_all_cases": "key: S, oseltamivir sensitive; R, oseltamivir resistant", "key": {"[1]": {"tested_on": "NA of A/Egypt-2/14724/NAMRU3/06", "format": "biochemical, influenza H5N1 A/Egypt-2/14724/NAMRU3/06"}, "[2]": {"tested_on": "NA of A/New Caledonia/20/99", "format": "biochemical, influenza H1N1 A/New Caledonia/20/99"}, "[3]": {"tested_on": "NA of A/Egypt/14725/NAMRU3/06", "format": "biochemical, influenza H5N1 A/Egypt/14725/NAMRU3/06"}, "NA of A/Udorn/72": {"tested_on": "NA of A/Udorn/72", "format": "biochemical, influenza H3N2 A/Udorn/72"}, "NA of A/Hong Kong/156/97": {"tested_on": "NA of A/Hong Kong/156/97", "format": "biochemical, influenza H5N1 A/Hong Kong/156/97"}, "[4]": {"tested_on": "NA of A/Vietnam/HN/30408/05", "format": "biochemical, influenza H5N1 A/Vietnam/HN/30408/05"}, "NA of A/Vietnam/1203/04": {"molecular_target": "NA of A/Vietnam/1203/04 (Influenza A virus, UniProt Q6DPL2)", "sequence (Q6DPL2 whole entry, looked up)": "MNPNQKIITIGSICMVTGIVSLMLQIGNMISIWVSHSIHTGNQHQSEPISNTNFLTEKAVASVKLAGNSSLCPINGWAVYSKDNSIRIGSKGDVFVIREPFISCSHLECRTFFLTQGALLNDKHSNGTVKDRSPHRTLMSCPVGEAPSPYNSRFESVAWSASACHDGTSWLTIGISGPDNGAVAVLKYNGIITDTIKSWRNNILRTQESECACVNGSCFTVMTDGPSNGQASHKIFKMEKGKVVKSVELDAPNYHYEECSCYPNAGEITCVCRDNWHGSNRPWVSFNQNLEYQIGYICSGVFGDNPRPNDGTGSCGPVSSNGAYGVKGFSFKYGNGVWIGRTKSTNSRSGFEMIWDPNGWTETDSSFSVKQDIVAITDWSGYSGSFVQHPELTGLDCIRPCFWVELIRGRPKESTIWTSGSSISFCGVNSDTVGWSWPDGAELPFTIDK", "format": "biochemical, influenza H5N1 A/Vietnam/1203/04"}, "[5]": {"tested_on": "NA of A/duck/Hong Kong/380.5/01", "format": "biochemical, influenza H5N1 A/duck/Hong Kong/380.5/01"}, "NA of A/Indonesia/05": {"tested_on": "NA of A/Indonesia/05", "format": "biochemical, influenza H5N1 A/Indonesia/05"}}, "data": [{"smiles": "CCOC(=O)C1=C[C@@H](OC(CC)CC)[C@H](NC(C)=O)[C@@H](N)C1", "note": "[Oseltamivir]", "values": [{"measurement": "Oseltamivir sensitivity of the virus", "setting": "[1]", "value": "R"}, {"measurement": "Oseltamivir sensitivity of the virus", "setting": "[2]", "value": "S"}, {"measurement": "Oseltamivir sensitivity of the virus", "setting": "[3]", "value": "R"}, {"measurement": "Oseltamivir sensitivity of the virus", "setting": "NA of A/Udorn/72", "value": "S^§"}, {"measurement": "Oseltamivir sensitivity of the virus", "setting": "NA of A/Hong Kong/156/97", "value": "S"}, {"measurement": "Oseltamivir sensitivity of the virus", "setting": "[4]", "value": "R"}, {"measurement": "Oseltamivir sensitivity of the virus", "setting": "NA of A/Vietnam/1203/04", "value": "S"}, {"measurement": "Oseltamivir sensitivity of the virus", "setting": "[5]", "value": "R"}, {"measurement": "Oseltamivir sensitivity of the virus", "setting": "NA of A/Indonesia/05", "value": "S"}]}]}
